Test results from patent publication US9072758B2, “Cyclic amide derivative” (MOCHIDA PHARMACEUTICAL CO., LTD., priority 2011, dated 2015).
pEC50: −log10 of the molar value.

Biological target: T1, GPR40 of human origin (Homo sapiens, UniProt O14842)
T1 construct: expressed in transfected cells
Experiment: Agonist action on GPR40 of human origin (Ca2+ fluctuation in a CHO cell strain stably expressing GPR40)
Assay type: cell-based
Settings: Calcium 4 Assay Kit, fluorescence intensity variation
Protocol: A CHO cell strain stably expressing GPR40 of human origin was used to determine the agonist action of a title compound. This cell strain was seeded in a clear bottom 96 well plate at 2×10^4 cells/100 μL/well. The cell strain was cultured in a CO2 incubator overnight using a Ham's F-12 medium containing a 10% fetal bovine serum, 100 U/mL penicillin, 0.1 mg/mL streptomycin, and 400 μg/mL Geneticin. Calcium 4 Assay Kit (Molecular Devices) was used as a fluorescent calcium indicator. One mL of 77 mg/mL probenecid (Invitrogen) was added to 100 mL of a calcium indicator solution to prepare a solution (loading solution) mixed with a 20 mM HEPES-containing Hanks' balanced salt solution (HBSS) in equal proportions. To the cells from which the culture solution was removed, 200 μL of the loading solution was added, and the cells were cultured in a CO2 incubator for 1 hour. The title compound was diluted with a 20 mM HEPES-containing HBSS and was added to the cells by 50 μL, and the fluctuation of the Ca^2+ concentration was measured by an intracellular ion analyzer. The EC50 value of the title compound was calculated using the dose-response curve of fluorescence intensity variation.

T1 sequence (O14842 whole entry): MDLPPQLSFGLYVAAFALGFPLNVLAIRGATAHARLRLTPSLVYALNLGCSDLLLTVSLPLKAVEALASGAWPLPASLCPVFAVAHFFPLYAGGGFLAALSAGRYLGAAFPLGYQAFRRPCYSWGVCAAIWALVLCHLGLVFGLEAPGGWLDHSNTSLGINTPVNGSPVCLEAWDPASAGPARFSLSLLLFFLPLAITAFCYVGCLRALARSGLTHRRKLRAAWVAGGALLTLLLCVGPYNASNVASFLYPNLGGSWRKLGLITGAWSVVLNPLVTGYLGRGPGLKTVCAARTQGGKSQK

Structure (SMILES)	pEC50
CCOCCOc1ccc(-c2cccc3c2CC[C@H]3Oc2ccc(C3CC(O)=N[S+]3[O-])cc2)c(C)n1 (single isomer, unassigned) [54(A)-a]	> 6.52
N#Cc1ccc(Oc2cccc3c2CC[C@H]3Oc2ccc(C3CC(=O)N[S+]3[O-])cc2)cc1 (single isomer, unassigned) [25(A)-b]	> 6.52
Cc1nc(OCCC(C)(C)O)ccc1Oc1cccc2c1CC[C@H]2Oc1ccc(C2CC(O)=N[S+]2[O-])cc1 (single isomer, unassigned) [51(A)-a]	> 6.52
Cc1nc(OCCC(C)(C)O)ccc1Oc1cccc2c1CC[C@H]2Oc1ccc(C2CC(O)=N[S+]2[O-])cc1 (single isomer, unassigned) [51(A)-b]	> 6.52
CCOc1ccc(F)cc1-c1cccc2c1CC[C@H]2Oc1ccc(C2CC(O)=N[S+]2[O-])cc1 (single isomer, unassigned) [Example 69]	> 6.52
Cc1nc(OCCC(C)(C)O)ccc1-c1cccc2c1CC[C@H]2Oc1ccc(C2CC(=O)NS(=O)(=O)C2)cc1 (stereo partly drawn) [Example 36, 5-(4-(((R)-4-(6-(3-hydroxy-3-methylbutoxy)-2-methylpyridin-3-yl)-2,3-dihydro-1H-inden-1-yl)oxy)phenyl)-1,2-thiazinan-3-one 1,1-dioxide]	> 6.52
Cc1cccc(Oc2cccc3c2CC[C@H]3Oc2ccc(C3CC(O)=N[S+]3[O-])cc2)c1 (single isomer, unassigned) [53(A)-b]	> 6.52
Cc1cc(OCCCS(C)(=O)=O)cc(C)c1-c1cccc2c1CC[C@H]2Oc1ccc(C2CC(=O)N[S+]2[O-])cc1 (single isomer, unassigned) [Example 59]	> 6.52
Cc1cc(O[C@@H]2CCc3c(-c4c(C)cc(OCCC(C)(C)O)cc4C)cccc32)ccc1C1CC(=O)NS(=O)(=O)C1 (stereo partly drawn) [Example 47, 5-(4-(((R)-4-(4-(3-hydroxy-3-methylbutoxy)-2,6-dimethylphenyl)-2,3-dihydro-1H-inden-1-yl)oxy)-2-methylphenyl)-1,2-thiazinan-3-one 1,1-dioxide]	> 6.52
Cc1ccc(F)cc1-c1cccc2c1CC[C@H]2Oc1ccc(C2CC(O)=N[S+]2[O-])cc1 (single isomer, unassigned) [Example 67]	> 6.52
Cc1ccccc1-c1cccc2c1CC[C@H]2Oc1ccc(C2CC(O)=N[S+]2[O-])cc1 (single isomer, unassigned) [Example 66]	> 6.52
CCOCCOc1cc(C)c(-c2cccc3c2CC[C@H]3Oc2ccc(C3CC(=O)NS(=O)(=O)C3)cc2)c(C)c1 (stereo partly drawn) [Example 42, 5-(4-(((R)-4-(4-(2-ethoxyethoxy)-2,6-dimethylphenyl)-2,3-dihydro-1H-inden-1-yl)oxy)phenyl)-1,2-thiazinan-3-one 1,1-dioxide]	> 6.52
O=C1CC(c2ccc(O[C@@H]3CCc4c(-c5ccccc5C(F)(F)F)cccc43)cc2)CS(=O)(=O)N1 (stereo partly drawn) [Example 38, 5-(4-(((R)-4-(2-(trifluoromethyl)phenyl)-2,3-dihydro-1H-inden-1-yl)oxy)phenyl)-1,2-thiazinan-3-one 1,1-dioxide]	> 6.52
COc1cccc(F)c1-c1cccc2c1CC[C@H]2Oc1ccc(C2CC(O)=N[S+]2[O-])cc1 (single isomer, unassigned) [Example 68]	> 6.52
COc1ccc(-c2cccc3c2CC[C@H]3Oc2ccc(C3CC(O)=N[S+]3[O-])cc2)c(C)n1 (single isomer, unassigned) [Example 63]	> 6.52
Cc1cccc(C)c1-c1cccc2c1CC[C@H]2Oc1ccc(C2CC(=O)NS(=O)(=O)C2)cc1 (stereo partly drawn) [Example 43, 5-(4-(((R)-4-(2,6-dimethylphenyl)-2,3-dihydro-1H-inden-1-yl)oxy)phenyl)-1,2-thiazinan-3-one 1,1-dioxide]	> 6.52
COc1cc(C)c(-c2cccc3c2CC[C@H]3Oc2ccc(C3CC(=O)NS(=O)(=O)C3)cc2)c(C)c1 (stereo partly drawn) [Example 46, 5-(4-(((R)-4-(4-methoxy-2,6-dimethylphenyl)-2,3-dihydro-1H-inden-1-yl)oxy)phenyl)-1,2-thiazinan-3-one 1,1-dioxide]	> 6.52
Cc1cccc(C)c1-c1cccc2c1CC[C@H]2Oc1ccc(C2CC(=O)NS(=O)(=O)C2)cc1 (stereo partly drawn) [Example 37, 5-(4-(((R)-4-(2,6-dimethylphenyl)-2,3-dihydro-1H-inden-1-yl)oxy)phenyl)-1,2-thiazinan-3-one 1,1-dioxide]	> 6.52
O=C1CC(c2ccc(O[C@@H]3CCc4c(Oc5ccccc5)cccc43)cc2)CS(=O)(=O)N1 (stereo partly drawn) [Example 49, 5-(4-(((R)-4-phenoxy-2,3-dihydro-1H-inden-1-yl)oxy)phenyl)-1,2-thiazinan-3-one 1,1-dioxide (C)]	> 6.52

The remaining lines, values ahead:

pEC50	Structure (SMILES)
> 6.52	COc1cc(C)c(-c2cccc3c2CC[C@H]3Oc2ccc(C3CC(O)=N[S+]3[O-])cc2)c(C)c1 (single isomer, unassigned) [Example 61]
> 6.52	CCOCCOc1cc(C)c(-c2cccc3c2CC[C@H]3Oc2ccc(C3CC(O)=N[S+]3[O-])cc2)c(C)c1 (single isomer, unassigned) [Example 58]
> 6.52	CCOCCOc1cc(C)c(-c2cccc3c2CC[C@H]3Oc2ccc(C3CC(=O)NS(=O)(=O)C3)cc2)c(C)c1 (stereo partly drawn) [Example 39, 5-(4-(((R)-4-(4-(2-ethoxyethoxy)-2,6-dimethylphenyl)-2,3-dihydro-1H-inden-1-yl)oxy)phenyl)-1,2-thiazinan-3-one 1,1-dioxide]
> 6.52	[O-][S+]1N=C(O)CC1c1ccc(O[C@@H]2CCc3c(-c4ccccc4C(F)(F)F)cccc32)cc1 (single isomer, unassigned) [Example 64]
> 6.52	O=C1CC(c2ccc(O[C@@H]3CCc4c(Oc5ccccc5)cccc43)cc2)CS(=O)(=O)N1 (stereo partly drawn) [Example 48, 5-(4-(((R)-4-phenoxy-2,3-dihydro-1H-inden-1-yl)oxy)phenyl)-1,2-thiazinan-3-one 1,1-dioxide]
> 6.52	Cc1ncccc1Oc1cccc2c1CC[C@H]2Oc1ccc(C2CC(O)=N[S+]2[O-])cc1 (single isomer, unassigned) [55(A)-b]
> 6.52	O=C1CC(c2ccc(O[C@@H]3CCc4c(-c5ccccc5C(F)(F)F)cccc43)cc2)CS(=O)(=O)N1 (stereo partly drawn) [Example 44, 5-(4-(((R)-4-(2-(trifluoromethyl)phenyl)-2,3-dihydro-1H-inden-1-yl)oxy)phenyl)-1,2-thiazinan-3-one 1,1-dioxide]
> 6.52	Cc1ncccc1Oc1cccc2c1CC[C@H]2Oc1ccc(C2CC(O)=N[S+]2[O-])cc1 (single isomer, unassigned) [55(A)-a]
> 6.52	Cc1nc(OCCC(C)(C)O)ccc1-c1cccc2c1CC[C@H]2Oc1ccc(C2CC(=O)N[S+]2[O-])cc1 (single isomer, unassigned) [23(A)-a]
> 6.52	Cc1cccc(C)c1-c1cccc2c1CC[C@H]2Oc1ccc(C2CC(O)=N[S+]2[O-])cc1 (single isomer, unassigned) [Example 60]
> 6.52	CCOCCOc1cc(C)c(-c2cccc3c2CC[C@H]3Oc2ccc(C3CC(O)=N[S+]3[O-])cc2)c(C)c1 (single isomer, unassigned) [Example 57]
> 6.52	CCOCCOc1ccc(-c2cccc3c2CC[C@H]3Oc2ccc(C3CC(O)=N[S+]3[O-])cc2)c(C)n1 (single isomer, unassigned) [54(A)-b]
> 6.52	Cc1nc(OCCCS(C)(=O)=O)ccc1-c1cccc2c1CC[C@H]2Oc1ccc(C2CC(O)=N[S+]2[O-])cc1 (single isomer, unassigned) [Example 62]
> 6.52	COc1ccc(Oc2cccc3c2CC[C@H]3Oc2ccc(C3CC(O)=N[S+]3[O-])cc2)cn1 (single isomer, unassigned) [52(A)-b]
> 6.52	Cc1cc(OCCCS(C)(=O)=O)cc(C)c1-c1cccc2c1CC[C@H]2Oc1ccc(C2CC(=O)NS(=O)(=O)C2)cc1 (stereo partly drawn) [Example 45, 5-(4-(((R)-4-(2,6-dimethyl-4-(3-(methylsulfonyl)propoxy)phenyl)-2,3-dihydro-1H-inden-1-yl)oxy)phenyl)-1,2-thiazinan-3-one 1,1-dioxide]
> 6.52	Cc1cccc(Oc2cccc3c2CC[C@H]3Oc2ccc(C3CC(O)=N[S+]3[O-])cc2)c1 (single isomer, unassigned) [53(A)-a]
> 6.52	[O-][S+]1N=C(O)CC1c1ccc(O[C@@H]2CCc3c(-c4cccnc4C(F)(F)F)cccc32)cc1 (single isomer, unassigned) [Example 65]
> 6.52	COc1ccc(Oc2cccc3c2CC[C@H]3Oc2ccc(C3CC(O)=N[S+]3[O-])cc2)cn1 (single isomer, unassigned) [52(A)-a]
